In data set [1] the test system is HCC4006 NSCLC cell line. Briefly: Cytotoxicity assay, HCC4006. The note with it: Homo sapiens; HCC4006 cells. The class given is cell-based. The procedure: (§1) Cell culture, imaging, and cytotoxicity assay
(§2) RPMI-1640 medium. NIH/3T3 was cultured in DMEM medium. A549 was cultured in F-12K medium. T24 were cultured in McCoy's 5A medium. All culture mediums were supplemented with 10% fetal bovine serum. The cells were incubated at 37 °C in an atmosphere containing 5% CO 2. […]
(§3) Cytotoxicity assay. All test cell lines were incubated in 96-well plates overnight at a density of 3000 cells/well. The culture medium was replaced with 200 μL of culture medium, into which the testing compound was dispersed at various concentrations (1.95 - 500 μM). After incubating for 3 days, the viable cell numbers were checked and directly counted under microscopy (10X). A minimum of 1mm×1mm area was counted from each of at least three widely separated regions of cell culture. The cell proliferation rate was calculated by the following formula: cell proliferation rate (%) = (average cell number of sample wells / average cell number of control wells) ×100%.
(§4) The intact culture medium was evaluated as a control. […]
(§5) All animal experiments were performed in compliance with the Guidelines for the Care and Use of Research Animals as established by the Stanford University Animal Studies Committee. Female athymic nude mice (nu/nu) from 4−6 weeks old were obtained from Charles River Laboratories (Boston, MA, USA) and kept under sterile conditions. 5 × 106 human lung adenocarcinoma

Data set [2] concerns bladder cancer T24 cell. Nature of the data set: Cytotoxicity assay (direct cell counting), T24. The format is cell-based. The protocol:
as §1, §2, §3, §4

The test system of data set [3] is A549 NSCLC cell line. Nature of the data set: Cytotoxicity assay, A549. As to conditions: Homo sapiens; A549 cells. The class given is cell-based. The protocol: as §1, §2, §3, §4
Data set [4] relates to H1944 NSCLC cell line. Briefly: Cytotoxicity assay, H1944. The class given is cell-based. The note with it: Homo sapiens, NCI-H1944; H1944 cells. The procedure:
as §1, §2, §3, §4

The test system of data set [5] is H838 cells' mitochondria. Nature of the data set: Effect of membrane potential (high K+ medium, FCCP) on 5BMF accumulation. The format is cell-based. The procedure: To verify that F16 derivatives preserve the same property, H838 cells were preincubated in high K^+ medium (137 mM) to depolarize the plasma membrane, then 5BMF (3 μM) was added and incubated for 30 min. […] As with other DLCs, the selectivity of F16s for mitochondria is driven by the negative transmembrane potential.[18]
Mitotracker® Red (Molecular Probes) and Hoechst (Thermo Scientific) were added to the medium to stain the mitochondria and nuclei, following the manufacturer’s procedures. Cells were photographed as previously described using a 63× oil or 20× objective lens.
The effect of membrane potential on 5BMF accumulation was performed through staining HCC827 cells in low K+ and high K+ buffer, instead of RPMI-1640 culture medium. Low K+ buffer contains 137 mM NaCl, 3.6 mM KCI, 0.5 mM MgCl2, 1.8 mM CaCl2 of RPMI-1640 medium (GIBCO). […]
Cytotoxicity assay. […] After incubating for 3 days, the viable cell numbers were checked and directly counted under microscopy (10X). A minimum of 1mm×1mm area was counted from each of at least three widely separated regions of cell culture. The cell proliferation rate was calculated by the following formula: cell proliferation rate (%) = (average cell number of sample wells / average cell number of control wells) ×100%.
as §4

Data set [6] in a line: Self-assembly into nanoparticles (TEM, DLS). The format is physicochemical. As to conditions: 1× pH 7.4 PBS, 5 mM to 0.125 mM.
Data set [7] concerns subcutaneous HCC827 tumor. Nature of the data set: In vivo and ex vivo fluorescence imaging of HCC827 tumor-bearing mice. More on the design: species or system nude mice. The protocol:
HCC827 cells suspended in 150 µL of PBS were inoculated subcutaneously in the right shoulder […]
When the tumors reached ~3 mm in diameter, the tumor-bearing mice were administered i.v. with 5BMF (dissolved in 150 µL PBS, with 2 µL DMSO) at 15 mg/Kg on days 1, 3, 5, 7, 9, 11, 13, 15, 17, 19, 21. Correspondingly, untreated tumor-bearing mice serving as controls were administered i.v. with 150 µL 1× PBS pH 7.4 (with 2 µL DMSO) on the same days as the treated mice. Ten mice were used for each group. Length and width of the elliptical tumors were measured by Vernier caliper after every intravenous injection. Modified ellipsoid formula ½ (Length × Width2) was used to calculate the tumor size. The tumor growth was calculated with the ratio of final volume (FV) minus initial volume (IV) to initial volume (IV).
In vivo fluorescent imaging was taken 40 minutes and 2 hours after the injection of 5BMF 15 mg/kg. IVIS spectrum instrument was used. The excitation wavelength was set at 450 nm.
Collection wavelength was set at 550 nm, using a 3s acquisition time. 4 mice for each group were used. Mice were sacrificed and the organs were harvest after each set of in vivo imaging.
Fluorescent images of the organs were taken under the same settings.
The tumor tissues and some important organs such as liver, kidney, lung, heart were isolated. After frozen, the specimens sectioned at 5-8 µm and processed for a standard hematoxylin-eosin (H&E) staining. Slides were viewed and photographed with the Nanozoomer Digital Pathology Image […]
The body weights of mice are presented as means ± standard deviation (SD) of n independent measurements. The tumor volumes are presented as means ± standard error of mean (SEM) of n independent measurements. Statistical analysis was performed using a Student’s t-test or Mann-Whitney U test. Statistical significance was assigned for P values <0.05.
Detail F16s Synthesis information

Data set [8] concerns H1437 NSCLC cell line. Briefly: Cytotoxicity assay, H1437. As to conditions: Homo sapiens, NCI-H1437; H1437 cells. The format is cell-based. The procedure:
as §1, §2, §3, §4

Data set [9] relates to H2228 NSCLC cell line. Briefly: Cytotoxicity assay, H2228. The class given is cell-based. The note with it: Homo sapiens, NCI-H2228, H2228 cells. The procedure: as §1, §2, §3, §4, §5

The structures appear in SMILES notation.

Regarding `Cc1cc(Br)cc2c(/C=C/c3cc[n+](C)cc3)c[nH]c12` [5BMF], the IC50 in [1] is 0.106 µM; in [2] (Homo sapiens, T-24, 72 h, T24 cells, 3 days incubation, viable cells counted) it was 0.82 µM; in [3], 0.727 µM; in data set [4] it was 0.261 µM; in data set [8] it was 1.43 µM; in data set [9], approximately 0.05 µM. Also, the selectivity indices in data set [2] (3T3 versus T24 and H838) is listed as more than 10. For the same molecule, the “accumulation in mitochondria in high K+ medium versus low K+ medium” value in data set [5] (H838 cells, 3 μM, 30 min, high K+ 137 mM, low K+ 3.6 mM) is “much less 5BMF accumulation in mitochondria”. In addition, the “mitochondrial staining after addition of FCCP” value in data set [5] (cells preloaded with 5BMF, FCCP 5 µM, 1 and 3 min) was “immediately decayed and diffused into the cytoplasm”. Moreover, the “size of self-assembled nanoparticles” value in data set [6] is listed as approximately 120 nm. Moreover, the “accumulation in tumor, kidney, bone, stomach, bowel, pancreas and skin” value in data set [7] (ex vivo imaging at 40 min and 2 h PI) was “accumulated more 5BMF compared with the liver, spleen, heart, lung, and brain”. Besides, the tumor/lung ratio in data set [7] (ex vivo imaging, 2 h PI, 15 mg/kg) was approximately 7. Also, the “tumor to background ratio” value in [7] (in vivo fluorescence, 2 h post IV injection, 15 mg/kg) is reported as approximately 2.

The values are drawn from publication PMC6836573, “Mitochondria-targeting fluorescent molecules for high efficiency cancer growth inhibition and imaging” (Chemical Science, 2019).
